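Dose response: 5 concentrations. Exposure: 48 h. Format: 96-well plates. Endpoint: linear interpolation; highest concentration if not reached. At the GI50, growth is halved.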 The source made the active and inactive calls. Cut-off read from the data, not from the text of the source: active = GI50 up to about 1.1 µM and inactive = higher.
How the values were obtained:
Assay in all cases: growth of human tumour cells (NCI), 48 h
M14 = system: M14
HCT-116 = system: HCT-116
MOLT-4 = system: MOLT-4
SK-MEL-28 = system: SK-MEL-28
SN12C = system: SN12C
SW-620 = system: SW-620
A549 = system: A549
A498 = system: A498
U-251 = system: U-251
SR = system: SR
HCT-15 = system: HCT-15
MDA-MB-231 = system: MDA-MB-231
NCI-H460 = system: NCI-H460
T47D = system: T47D
ACHN = system: ACHN
UO-31 = system: UO-31
DU-145 = system: DU-145
NCI/ADR-RES = system: NCI/ADR-RES
HOP-92 = system: HOP-92
Malme-3M = system: Malme-3M

For `Cc1c(C(=O)O)n2c(S)nnc2c2ccccc12`, the GI50 (M14) was > 100 µM (inactive), the GI50 (HCT-116) was > 100 µM (inactive) and the GI50 (MOLT-4) was > 100 µM (inactive). For the same compound, the GI50 (SK-MEL-28) was > 100 µM (inactive), the GI50 (SN12C) was > 100 µM (inactive) and the GI50 (SW-620) was > 100 µM (inactive). The GI50 (A549) was > 100 µM (inactive), the GI50 (A498) was > 100 µM (inactive) and the GI50 (U-251) was > 100 µM (inactive). For the same compound, the GI50 (SR) was > 100 µM (inactive), the GI50 (HCT-15) was > 100 µM and the GI50 (MDA-MB-231) was > 100 µM (inactive). For the same compound, the GI50 (NCI-H460) was > 100 µM (inactive), the GI50 (T47D) was > 100 µM (inactive) and the GI50 (ACHN) was > 100 µM (inactive). The GI50 (UO-31) was > 100 µM (inactive), the GI50 (DU-145) was > 100 µM (inactive) and the GI50 (NCI/ADR-RES) was > 100 µM (inactive). For the same compound, the GI50 (HOP-92) was > 100 µM (inactive).
`COC(=O)C1=C(C)NC(C)=C(C(=O)OC)C1c1nc2sccn2c1[N+](=O)[O-]` was tested, and the GI50 (M14) was > 100 µM (inactive), the GI50 (HCT-116) was > 100 µM (inactive) and the GI50 (MOLT-4) was > 100 µM (inactive). For the same compound, the GI50 (SK-MEL-28) was > 100 µM (inactive), the GI50 (SN12C) was > 100 µM (inactive) and the GI50 (SW-620) was > 100 µM (inactive). For the same compound, the GI50 (A549) was > 100 µM (inactive), the GI50 (A498) was > 100 µM (inactive) and the GI50 (U-251) was > 100 µM (inactive). The GI50 (SR) was > 100 µM (inactive), the GI50 (HCT-15) was > 100 µM and the GI50 (MDA-MB-231) was > 100 µM (inactive). The GI50 (NCI-H460) was > 100 µM (inactive), the GI50 (T47D) was > 100 µM (inactive) and the GI50 (ACHN) was > 100 µM (inactive). For the same compound, the GI50 (UO-31) was > 100 µM (inactive), the GI50 (DU-145) was > 100 µM (inactive) and the GI50 (NCI/ADR-RES) was > 100 µM (inactive). The GI50 (HOP-92) was > 100 µM (inactive).
For `Nc1cc2c(nnn2C2OC(COCc3ccccc3)C(OCc3ccccc3)C2OCc2ccccc2)c(=O)[nH]1` (stereo not drawn), the GI50 (M14) was 13.5 µM (inactive), the GI50 (Malme-3M) was 27.7 µM (inactive) and the GI50 (HCT-116) was 10.6 µM (inactive). For the same compound, the GI50 (MOLT-4) was 7.85 µM (inactive), the GI50 (SK-MEL-28) was 46.9 µM (inactive) and the GI50 (SN12C) was 9.59 µM (inactive). The GI50 (SW-620) was 37 µM (inactive), the GI50 (A549) was 13.5 µM (inactive) and the GI50 (A498) was 48.8 µM (inactive). For the same compound, the GI50 (U-251) was 9.86 µM (inactive), the GI50 (SR) was 11.5 µM (inactive) and the GI50 (HCT-15) was 40.3 µM. The GI50 (MDA-MB-231) was 21.6 µM (inactive), the GI50 (NCI-H460) was 15.9 µM (inactive) and the GI50 (T47D) was 5.9 µM (inactive). For the same compound, the GI50 (ACHN) was 32.8 µM (inactive), the GI50 (UO-31) was 58.1 µM (inactive) and the GI50 (DU-145) was 35.9 µM (inactive). The GI50 (NCI/ADR-RES) was > 100 µM (inactive) and the GI50 (HOP-92) was 28.4 µM (inactive).
`CN(CCCNC(=O)c1cc(-c2ccccc2)nc2ccccc12)CCCNC(=O)c1cc(-c2ccccc2)nc2ccccc12` was tested, and the GI50 (M14) was 1.71 µM (inactive), the GI50 (Malme-3M) was 1.94 µM (inactive) and the GI50 (HCT-116) was 1.79 µM (inactive). The GI50 (MOLT-4) was 2.45 µM (inactive), the GI50 (SK-MEL-28) was 1.83 µM (inactive) and the GI50 (SN12C) was 5.85 µM (inactive). The GI50 (SW-620) was 1.85 µM (inactive), the GI50 (A549) was 3.96 µM (inactive) and the GI50 (A498) was 4.41 µM (inactive). The GI50 (U-251) was 2.04 µM (inactive), the GI50 (SR) was 3.36 µM (inactive) and the GI50 (HCT-15) was 4 µM. For the same compound, the GI50 (MDA-MB-231) was 2.44 µM (inactive), the GI50 (NCI-H460) was 1.78 µM (inactive) and the GI50 (T47D) was 2.95 µM (inactive). For the same compound, the GI50 (ACHN) was 2.81 µM (inactive), the GI50 (UO-31) was 2.31 µM (inactive) and the GI50 (DU-145) was 3.58 µM (inactive). For the same compound, the GI50 (NCI/ADR-RES) was 2.84 µM (inactive) and the GI50 (HOP-92) was 2.64 µM (inactive).
`Nc1ccc(S(=O)(=O)Nc2ccc(Nc3c4ccccc4nc4ccccc34)cc2)cc1` was tested, and the GI50 (M14) was 0.0298 µM (active), the GI50 (Malme-3M) was 0.0675 µM (active) and the GI50 (HCT-116) was 0.165 µM (active). For the same compound, the GI50 (MOLT-4) was < 0.01 µM (active), the GI50 (SK-MEL-28) was 0.738 µM (active) and the GI50 (SN12C) was < 0.01 µM (active). The GI50 (SW-620) was 0.0485 µM (active), the GI50 (A549) was < 0.01 µM (active) and the GI50 (A498) was 0.0538 µM (active). For the same compound, the GI50 (U-251) was 0.0154 µM (active), the GI50 (SR) was < 0.01 µM (active) and the GI50 (HCT-15) was 0.579 µM. The GI50 (MDA-MB-231) was 2.08 µM (inactive), the GI50 (NCI-H460) was 0.0347 µM (active) and the GI50 (T47D) was 0.0637 µM (active). For the same compound, the GI50 (ACHN) was < 0.0114 µM (active), the GI50 (UO-31) was 0.195 µM (active) and the GI50 (DU-145) was < 0.01 µM (active). For the same compound, the GI50 (NCI/ADR-RES) was 4.83 µM (inactive) and the GI50 (HOP-92) was 0.5 µM (active).
In the case of `Cn1c2ccccc2n2c3nc4ccccc4nc3c(C#N)c12`, the GI50 (M14) is reported as > 100 µM (inactive), the GI50 (Malme-3M) is reported as > 81.8 µM (inactive) and the GI50 (HCT-116) is reported as 53.8 µM (inactive). The GI50 (MOLT-4) was 57.8 µM (inactive), the GI50 (SK-MEL-28) was > 100 µM (inactive) and the GI50 (SN12C) was > 94.2 µM (inactive). For the same compound, the GI50 (SW-620) was 74.8 µM (inactive), the GI50 (A549) was > 100 µM (inactive) and the GI50 (A498) was 6.44 µM (inactive). The GI50 (U-251) was 74 µM (inactive), the GI50 (SR) was 49.3 µM (inactive) and the GI50 (HCT-15) was 9.29 µM. For the same compound, the GI50 (MDA-MB-231) was > 97.1 µM (inactive), the GI50 (NCI-H460) was 5.48 µM (inactive) and the GI50 (T47D) was 21.4 µM (inactive). For the same compound, the GI50 (ACHN) was 75.3 µM (inactive), the GI50 (UO-31) was 77.3 µM (inactive) and the GI50 (DU-145) was > 100 µM (inactive). The GI50 (NCI/ADR-RES) was > 100 µM (inactive) and the GI50 (HOP-92) was > 100 µM (inactive).
`CN(C)/N=C1/CCC(C(F)(F)F)(C(F)(F)F)O1` was tested, and the GI50 (M14) was 25.1 µM (inactive), the GI50 (Malme-3M) was 23.3 µM (inactive) and the GI50 (HCT-116) was 29.7 µM (inactive). The GI50 (MOLT-4) was 37.2 µM (inactive), the GI50 (SK-MEL-28) was 39.6 µM (inactive) and the GI50 (SN12C) was 27.8 µM (inactive). For the same compound, the GI50 (SW-620) was 40.6 µM (inactive), the GI50 (A549) was 37.5 µM (inactive) and the GI50 (A498) was 21.4 µM (inactive). The GI50 (U-251) was 39 µM (inactive), the GI50 (SR) was 17.6 µM (inactive) and the GI50 (HCT-15) was 41.4 µM. The GI50 (MDA-MB-231) was 25.4 µM (inactive), the GI50 (NCI-H460) was 41 µM (inactive) and the GI50 (T47D) was 33.2 µM (inactive). The GI50 (ACHN) was 35.6 µM (inactive), the GI50 (UO-31) was 28.4 µM (inactive) and the GI50 (DU-145) was 47 µM (inactive). For the same compound, the GI50 (NCI/ADR-RES) was 26.6 µM (inactive) and the GI50 (HOP-92) was 32.7 µM (inactive).

Reference: ChEMBL document CHEMBL1201862, “PubChem BioAssay data set” (2004)
